In PubChem BioAssay (NCI):
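Results reflect a 48-hour exposure of cells in 96-well plates to compound at five concentrations. Here, GI50 denotes the concentration required for 50% inhibition of growth. TGI is the concentration that stops growth completely.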

Key:
Test in all cases: NCI-60 cell line screen, 48 h
[1] = system: OVCAR-8 ovarian
[2] = system: HS 578T breast
[3] = system: A498 renal
[4] = system: NCI-H522 lung
[5] = system: HCT-15 colon
[6] = system: KM12 colon
[7] = system: PC-3 prostate
[8] = system: BT-549 breast
[9] = system: SR leukemia
[10] = system: OVCAR-3 ovarian
[11] = system: K-562 leukemia
[12] = system: EKVX NSCLC
[13] = system: TK-10 renal
[14] = system: IGROV1 ovarian
[15] = system: RXF 393 renal
[16] = system: MOLT-4 leukemia
[17] = system: MDA-MB-435
[18] = system: HL-60(TB) leukemia
[19] = system: OVCAR-5 ovarian
[20] = system: CCRF-CEM leukemia
[21] = system: SK-MEL-2 melanoma
[22] = system: NCI/ADR-RES ovarian
[23] = system: COLO 205 colon
[24] = system: MDA-MB-231 breast
[25] = system: 786-0 renal
[26] = system: UO-31 renal
[27] = system: T-47D breast
[28] = system: HCC-2998 colon
[29] = system: NCI-H226 lung
[30] = system: SF-268 CNS
[31] = system: M14 melanoma
[32] = system: SK-OV-3 ovarian
[33] = system: LOX IMVI melanoma
[34] = system: MCF7 breast
[35] = system: SNB-19 CNS
[36] = system: SK-MEL-28 melanoma
[37] = system: NCI-H23 lung
[38] = system: SF-295 CNS
[39] = system: SN12C renal
[40] = system: U251 CNS
[41] = system: DU-145 prostate
[42] = system: MALME-3M melanoma
[43] = system: SK-MEL-5 melanoma
[44] = system: RPMI-8226 leukemia
[45] = system: SW-620 colon
[46] = system: HOP-92 NSCLC
[47] = system: HCT-116 colon
[48] = system: HT29 colon
[49] = system: NCI-H460 lung
[50] = system: A549 NSCLC
[51] = system: UACC-62 melanoma
[52] = system: ACHN renal
[53] = system: OVCAR-4 ovarian
[54] = system: SNB-75 CNS
[55] = system: SF-539 CNS
[56] = system: UACC-257 melanoma
[57] = system: CAKI-1 renal
[58] = system: HOP-62 NSCLC

Structure (SMILES): COc1ccc(C(=O)c2cc(OC)c(OC)c(OC)c2)cc1OC(C)=O
- GI50 [1]: 45.1 nM
- TGI [1]: > 100000 nM
- GI50 [2]: 23.5 nM
- TGI [2]: > 100000 nM
- GI50 [3]: 1610 nM
- TGI [3]: 6430 nM
- GI50 [4]: 17 nM
- TGI [4]: > 100000 nM
- GI50 [5]: < 13.6 nM
- TGI [5]: > 100000 nM
- GI50 [6]: < 13.3 nM
- TGI [6]: > 100000 nM
- GI50 [7]: 20.8 nM
- TGI [7]: > 100000 nM
- GI50 [8]: < 19.9 nM
- TGI [8]: > 67500 nM
- GI50 [9]: < 10 nM
- TGI [9]: > 75200 nM
- GI50 [10]: 29.2 nM
- TGI [10]: 84.8 nM
- GI50 [11]: < 10 nM
- TGI [11]: > 100000 nM
- GI50 [12]: 2240 nM
- TGI [12]: > 100000 nM
- GI50 [13]: 59000 nM
- TGI [13]: > 100000 nM
- GI50 [14]: 272 nM
- TGI [14]: > 100000 nM
- GI50 [15]: 39.1 nM
- TGI [15]: > 100000 nM
- GI50 [16]: < 19.9 nM
- TGI [16]: > 43300 nM
- GI50 [17]: < 10 nM
- TGI [17]: 10.2 nM
- GI50 [18]: < 14.1 nM
- TGI [18]: < 22.8 nM
- GI50 [19]: 4550 nM
- TGI [19]: > 100000 nM
- GI50 [20]: 35.3 nM
- TGI [20]: > 100000 nM
- GI50 [21]: 84.8 nM
- TGI [21]: > 100000 nM
- GI50 [22]: < 15.3 nM
- TGI [22]: > 100000 nM
- GI50 [23]: 786 nM
- TGI [23]: 10100 nM
- GI50 [24]: 36.9 nM
- TGI [24]: > 100000 nM
- GI50 [25]: 672 nM
- TGI [25]: > 100000 nM
- GI50 [26]: 195 nM
- TGI [26]: > 100000 nM
- GI50 [27]: 19900 nM
- TGI [27]: > 100000 nM
- GI50 [28]: 40 nM
- TGI [28]: > 100000 nM
- GI50 [29]: 8710 nM
- TGI [29]: > 100000 nM
- GI50 [30]: 88.3 nM
- TGI [30]: > 100000 nM
- GI50 [31]: < 14.3 nM
- TGI [31]: > 100000 nM
- GI50 [32]: 81.7 nM
- TGI [32]: > 100000 nM
- GI50 [33]: 22 nM
- TGI [33]: > 100000 nM
- GI50 [34]: 34.6 nM
- TGI [34]: > 100000 nM
- GI50 [35]: 38.1 nM
- TGI [35]: > 100000 nM
- GI50 [36]: 11200 nM
- TGI [36]: > 100000 nM
- GI50 [37]: 66.2 nM
- TGI [37]: > 100000 nM
- GI50 [38]: 79.6 nM
- TGI [38]: > 100000 nM
- GI50 [39]: 50.9 nM
- TGI [39]: > 100000 nM
- GI50 [40]: 39.2 nM
- TGI [40]: > 100000 nM
- GI50 [41]: 32.4 nM
- TGI [41]: > 100000 nM
- GI50 [42]: 35400 nM
- TGI [42]: > 100000 nM
- GI50 [43]: 32.5 nM
- TGI [43]: 311 nM
- GI50 [44]: 32.4 nM
- TGI [44]: 26800 nM
- GI50 [45]: < 18.4 nM
- TGI [45]: > 100000 nM
- GI50 [46]: 1730 nM
- TGI [46]: > 100000 nM
- GI50 [47]: 29.7 nM
- TGI [47]: > 100000 nM
- GI50 [48]: 1150 nM
- TGI [48]: > 100000 nM
- GI50 [49]: 37.9 nM
- TGI [49]: > 100000 nM
- GI50 [50]: 115 nM
- TGI [50]: > 100000 nM
- GI50 [51]: 448 nM
- TGI [51]: > 100000 nM
- GI50 [52]: 37.9 nM
- TGI [52]: > 100000 nM
- GI50 [53]: 82.2 nM
- TGI [53]: > 100000 nM
- GI50 [54]: < 14.5 nM
- TGI [54]: > 100000 nM
- GI50 [55]: < 10 nM
- TGI [55]: 37.6 nM
- GI50 [56]: > 100000 nM
- TGI [56]: > 100000 nM
- GI50 [57]: 74.6 nM
- TGI [57]: > 100000 nM
- GI50 [58]: 61.8 nM
- TGI [58]: > 100000 nM
